In data set [1] the target is T1, human mineralocorticoid receptor (hMR) (Homo sapiens, UniProt P08235).
T1 construct: expressed in transfected cells; host or cells: HEK293
T1 sequence (P08235 726-964 limits assumed): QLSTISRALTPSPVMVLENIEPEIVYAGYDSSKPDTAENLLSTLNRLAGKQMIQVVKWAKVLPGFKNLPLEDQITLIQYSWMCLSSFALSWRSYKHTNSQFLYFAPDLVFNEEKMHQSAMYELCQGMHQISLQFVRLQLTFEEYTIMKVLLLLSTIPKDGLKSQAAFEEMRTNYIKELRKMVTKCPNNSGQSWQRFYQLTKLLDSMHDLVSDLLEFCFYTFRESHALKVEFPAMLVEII
Put plainly: GAL4-hMR-LBD luciferase reporter assay in HEK293 cells with 1 nM aldosterone (Test Example 1).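 On Imax: 0% is DMSO-only control and 100% is 1 nM aldosterone alone.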 Type of data set: cell-based. To be noted: for Emax: HEK293, read-out: Imax; for IC50: concentration showing Imax/2, HEK293, GAL4-hMR-LBD, 1 nM aldosterone, overnight, read-out: ICmax50. How it is done: A plasmid pM-hMR-LBD expressing GAL4-hMR receptor, which has a ligand binding domain (LBD, corresponding to approximately 308 amino acids at the carboxy terminus) of human mineralocorticoid receptor (hMR, NM_000901) bonded to a DNA binding domain of yeast transcription factor GAL4 (corresponding to 147 amino acids at the amino terminus), was prepared. Reporter assay was conducted by using a reporter plasmid (such as plasmid pFR-Luc of […] CLONING SYSTEMS) including a luciferase gene, having a sequence (UAS sequence) which binds to the DNA binding domain of GAL4.
The plasmid pM-hMR-LBD and the reporter plasmid as obtained above were gene transferred into renal cell line HEK293 of human fetus by lipofection. On the next day, cells were collected by trypsin treatment, and dispensed with DMEM culture medium containing 5% of FBS treated by activated charcoal, to a white 96-well plate (Costar) with the amount of 95 microliter per well.
The test compounds were used as dissolved in dimethyl sulfoxide at a predetermined concentration, and the test compounds suitably diluted with culture media were added to the cells on the white 96-well plate so that the final concentration becomes 0.1%. […] After the addition, cultivation was carried out overnight.
On the next day, the culture media was removed, and then luciferase substrate (Wako Pure Chemical Industries, Ltd.) was prepared in accordance with the attached document and were added to each well by 50 microliters. Stirring was conducted for approximately 30 minutes, and the amount of luminescence was measured for each well by using Analyst (Molecular Devices), to obtain luciferase activity. A graph which plots relative luciferase activity values, when the luciferase activity value of Control group 1 was taken as 0% and the luciferase activity value of Control group 2 was taken as 100%, for each of the amount of the test compound addition group was made.

Data set [2] can be described thus: Plasma concentration after intragastric administration to cynomolgus monkey (Test Example 2). Type of data set: in vivo. The conditions noted are these: male cynomolgus monkey, 3 mg/kg intragastric in 0.5% MC, plasma, LC-MS/MS; for AUC, area under the plasma concentration versus time curve: noncompartment model; for Cmax: po, read-out: Cmax, maximum concentration. How it is done: Cynomolgus monkey (male) was used, and it was fasted from the day before administration of the test compound.
Administration samples were prepared by adding a 0.5% MC (methyl cellulose) solution to the Test Compound, so that the dose becomes 3 mg/2 mL/kg. Each of the administration samples was administered intragastrically to the cynomolgus monkey by using a tube. After the samples were administered, approximately 5 mL of 0.5% MC was administered. For each of the administration samples, a group of two cynomolgus monkeys was administered.
With respect to collection of blood, it was conducted by collecting approximately 0.5 mL of blood from crotch vein using a glass syringe treated with heparin, before administration, and 30 minutes, 1, 2, 4, 6, 8, 24 and 48 hours after administration. Blood was centrifuged (1,700×g, 15 min, 4° C.) to obtain plasma. Plasma was stored in a freezer (−20° C.) until pretreatment.
Preparation of standard solution and internal standard (IS) solution: Each of the Test Compounds was dissolved in DMSO (dimethyl sulfoxide) to prepare a solution of 10 mM each. Each of the compound solution was diluted with acetonitrile, and thus standard solution was prepared. Further, niflumic acid (Wako Pure Chemical Industries, Ltd.) was dissolved in DMSO at the concentration of 2 mM, followed by dilution with acetonitrile to prepare an IS solution of 2 μM.
Pretreatment of plasma samples: 20 μL of plasma sample was collected, and then 25 μL of purified water, 100 μL of acetonitrile, and 100 μL of methanol was added. For the preparation of a calibration curve, 25 μL of purified water, 20 μL of each of the standard solutions (acetonitrile solution), 80 μL of acetonitrile, and 100 μL of methanol were added to 20 μL of blank plasma. 40 μL of the acetonitrile solution of IS was added to all of the samples, and then the samples were stirred, filtered by suction using Captiva filter plate (Varian, Inc.), and then the filtrate was used as the sample for LC-MS/MS analysis.
Quantitative Determination of Test Compound: Concentration in plasma was analyzed by LC-MS/MS method for each Test Compound.
Analysis: Pharmacokinetic parameter was calculated from concentration of each of the drugs in plasma, by using WinNonlin Professional (Ver. 4.0.1, Pharsight Corporation). Here, Noncompartment model was used as the model for parameter calculation.

With `Cc1c(C(=O)Nc2ccc(S(C)(=O)=O)cc2)cc(C[C@H](C)O)n1-c1ccc(Cl)cc1OC(F)F` (single isomer, unassigned) [Example 11 - isomer A], in data set [1], the Emax worked out at 89% and the IC50 was determined as 7.3 nM. For the same compound, in data set [2], the “AUC, area under the plasma concentration versus time curve” value was determined as 24810 ng·h/mL and the Cmax is 1600 ng/mL.

In the case of `Cc1c(C(=O)Nc2ccc(S(C)(=O)=O)cc2)cc(CCO)n1-c1ccc(Cl)cc1C(F)(F)F` (single isomer, unassigned) [Example 1 - isomer A, 1-[4-Chloro-2-(trifluoromethyl)phenyl]-5-(2-hydroxyethyl)-2-methyl-N-[4-(methylsulfonyl)phenyl]-1H-pyrrole-3-carboxamide], in data set [1], the Emax worked out at 87% and the IC50 came to 3.7 nM. In data set [2], the “AUC, area under the plasma concentration versus time curve” value amounted to 14110 ng·h/mL and the Cmax came to 990 ng/mL.

As for `CCc1c(C(=O)Nc2ccc(S(C)(=O)=O)cc2)cc(C[C@H](C)O)n1-c1ccc(F)cc1Cl` (single isomer, unassigned) [Example 44 - isomer B], in data set [1], the Emax is 98% and the IC50 worked out at 12 nM. In addition, in data set [2], the “AUC, area under the plasma concentration versus time curve” value stood at 16920 ng·h/mL and the Cmax amounted to 940 ng/mL.

`Cc1c(C(=O)Nc2ccc(S(C)(=O)=O)cc2)cc(C[C@H](C)O)n1-c1ccc(F)cc1Cl` (single isomer, unassigned) [Example 40 - isomer A]: in data set [1], the Emax was 91% and the IC50 was 9.6 nM. Further, in data set [2], the “AUC, area under the plasma concentration versus time curve” value was determined as 15110 ng·h/mL and the Cmax came to 1300 ng/mL.

On to `Cc1cc(C(=O)Nc2ccc(S(C)(=O)=O)cc2)c(C)n1-c1ccccc1C(F)(F)F` [Reference compound A, 1-[2-(trifluoromethyl)phenyl]-2,5-dimethyl-N-[4-(methylsulfonyl)phenyl]-1H-pyrrole-3-carboxamide, reference compound], for which, in data set [1], the Emax was determined as 114% and the IC50 was determined as 14 nM. Besides, in data set [2], the “AUC, area under the plasma concentration versus time curve” value amounted to 30 ng·h/mL and the Cmax is < 10 ng/mL.

As for `Cc1c(C(=O)Nc2ccc(S(C)(=O)=O)cc2)cc(C[C@H](C)O)n1-c1ccc(Cl)cc1OC(F)(F)F` (single isomer, unassigned) [Example 42 - isomer B], in data set [1], the Emax is 95% and the IC50 is 2.7 nM. For the same compound, in data set [2], the “AUC, area under the plasma concentration versus time curve” value was found to be 23860 ng·h/mL and the Cmax amounted to 1660 ng/mL.

With `Cc1cc(Cl)ccc1-n1c(CCF)cc(C(=O)Nc2ccc(S(C)(=O)=O)cc2)c1C` (single isomer, unassigned) [Example 51 - isomer A, 1-(4-Chloro-2-methylphenyl)-5-(2-fluoroethyl)-2-methyl-N-[4-(methylsulfonyl)phenyl]-1H-pyrrole-3-carboxamide], in data set [1], the Emax is 124% and the IC50 was found to be 11 nM. In data set [2], the “AUC, area under the plasma concentration versus time curve” value worked out at 10940 ng·h/mL and the Cmax turned out to be 830 ng/mL.

In the case of `Cc1c(C(=O)Nc2ccc(S(C)(=O)=O)cc2)cc(C[C@H](C)O)n1-c1ccc(F)cc1OC(F)F` (single isomer, unassigned) [Example 9 - isomer A], in data set [1], the Emax is 84% and the IC50 was 18 nM. In data set [2], the “AUC, area under the plasma concentration versus time curve” value turned out to be 23950 ng·h/mL and the Cmax was found to be 2350 ng/mL.

With `Cc1c(C(=O)Nc2ccc(S(C)(=O)=O)cc2)cc(C[C@H](C)O)n1-c1ccc(F)cc1C(F)(F)F` (single isomer, unassigned) [Example 5 - isomer A], in data set [1], the Emax is 119% and the IC50 stood at 3.4 nM. Further, in data set [2], the “AUC, area under the plasma concentration versus time curve” value was found to be 31310 ng·h/mL and the Cmax is 1600 ng/mL.

With `Cc1c(C(=O)Nc2ccc(S(C)(=O)=O)cc2)cc(C[C@H](C)O)n1-c1ccc(Cl)cc1C(F)(F)F` (single isomer, unassigned) [Example 6 - isomer A], in data set [1], the Emax was 79% and the IC50 turned out to be 3.1 nM. In data set [2], the “AUC, area under the plasma concentration versus time curve” value worked out at 30280 ng·h/mL and the Cmax came to 1730 ng/mL.

The record behind these values is US8642640B2, “1-phenylpyrrole derivatives” (Exelixis, Inc., priority 2008, dated 2014).
